# In the supplement of paper PMC10307832:
# What was measured:
# Assay in all cases: relative viability (nuclei count vs DMSO), 5 days (fraction); higher = more cells survive
# SW 900 = system: SW 900
# Procedure, shortened: (§1)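 Nuclei were stained with Hoechst during a one-step fixation (final 0.05% Triton X-100, 1% formaldehyde, 1 ug/ml Hoechst) carried out 5 days after dosing, then counted on 4× images. The cells, lung cancer lines in 1536-well plates, had been dosed by pin tool the day after seeding with one drug alone or a fixed anchor-drug dose plus five library-drug doses (not always all listed) in √10 steps. Relative viability is the nuclei count in treated wells divided by that in vehicle wells, and each value is the median of duplicate plates.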
# NCI-H1437 = system: NCI-H1437
# Procedure, shortened: as §1
# NCI-H1395 = system: NCI-H1395
# Procedure, shortened: as §1
# LU99A = system: LU99A
# Procedure, shortened: as §1
# NCI-H2126 = system: NCI-H2126
# Procedure, shortened: as §1
# NCI-H1755 = system: NCI-H1755
# Procedure, shortened: as §1
# NCI-H358 = system: NCI-H358
# Procedure, shortened: as §1
# BEN = system: BEN
# Procedure, shortened: as §1
# HCC-15 = system: HCC-15
# Procedure, shortened: as §1
# SW 1573 = system: SW 1573
# Procedure, shortened: as §1
# EMC-BAC-2 = system: EMC-BAC-2
# Procedure, shortened: as §1
# NCI-H1734 = system: NCI-H1734
# Procedure, shortened: as §1
# NCI-H650 = system: NCI-H650
# Procedure, shortened: as §1
# NCI-H3122 = system: NCI-H3122
# Procedure, shortened: as §1
# NCI-H1563 = system: NCI-H1563
# Procedure, shortened: as §1
# NCI-H2023 = system: NCI-H2023
# Procedure, shortened: as §1
# NCI-H727 = system: NCI-H727
# Procedure, shortened: as §1
# NCI-H1915 = system: NCI-H1915
# Procedure, shortened: as §1
# HOP-62 = system: HOP-62
# Procedure, shortened: as §1
# LC-2-ad = system: LC-2-ad
# Procedure, shortened: as §1
# NCI-H2170 = system: NCI-H2170
# Procedure, shortened: as §1
smiles,measurement,setting,value
CN1CCN(CCOc2cc(OC3CCOCC3)c3c(Nc4c(Cl)ccc5c4OCO5)ncnc3c2)CC1 [Saracatinib] + COc1cc2c(Oc3ccc(NC(=O)C4(C(=O)Nc5ccc(F)cc5)CC4)cc3F)ccnc2cc1OCCCN1CCOCC1 [Foretinib] (partner 0.25 µM),relative viability,SW 900; first compound 0.02 µM,0.78
same,relative viability,SW 900; first compound 0.2 µM,0.737
same,relative viability,SW 900; first compound 0.6325 µM,0.919
same,relative viability,SW 900; first compound 2 µM,0.776
same,relative viability,NCI-H1437; first compound 0.02 µM,1.27
same,relative viability,NCI-H1437; first compound 0.2 µM,1.22
same,relative viability,NCI-H1437; first compound 0.6325 µM,1.3
same,relative viability,NCI-H1437; first compound 2 µM,1.3
same,relative viability,NCI-H1395; first compound 0.02 µM,1.08
same,relative viability,NCI-H1395; first compound 0.2 µM,0.908
same,relative viability,NCI-H1395; first compound 0.6325 µM,1.03
same,relative viability,NCI-H1395; first compound 2 µM,0.856
same,relative viability,LU99A; first compound 0.02 µM,0.811
same,relative viability,LU99A; first compound 0.2 µM,0.562
same,relative viability,LU99A; first compound 0.6325 µM,0.831
same,relative viability,LU99A; first compound 2 µM,0.536
same,relative viability,NCI-H2126; first compound 0.02 µM,1.15
same,relative viability,NCI-H2126; first compound 0.2 µM,1.22
same,relative viability,NCI-H2126; first compound 0.6325 µM,1.17
same,relative viability,NCI-H2126; first compound 2 µM,1.07
same,relative viability,NCI-H1755; first compound 0.02 µM,0.936
same,relative viability,NCI-H1755; first compound 0.2 µM,0.849
same,relative viability,NCI-H1755; first compound 0.6325 µM,0.821
same,relative viability,NCI-H1755; first compound 2 µM,0.792
same,relative viability,NCI-H358; first compound 0.02 µM,0.761
same,relative viability,NCI-H358; first compound 0.2 µM,0.534
same,relative viability,NCI-H358; first compound 0.6325 µM,0.421
same,relative viability,NCI-H358; first compound 2 µM,0.213
same,relative viability,BEN; first compound 0.02 µM,0.753
same,relative viability,BEN; first compound 0.6325 µM,0.707
same,relative viability,BEN; first compound 2 µM,0.476
same,relative viability,HCC-15; first compound 0.02 µM,1.14
same,relative viability,HCC-15; first compound 0.2 µM,0.975
same,relative viability,HCC-15; first compound 0.6325 µM,1.12
same,relative viability,HCC-15; first compound 2 µM,1.05
same,relative viability,SW 1573; first compound 0.02 µM,0.895
same,relative viability,SW 1573; first compound 0.2 µM,0.711
same,relative viability,SW 1573; first compound 0.6325 µM,1.14
same,relative viability,SW 1573; first compound 2 µM,0.792
same,relative viability,EMC-BAC-2; first compound 0.02 µM,1.01
same,relative viability,EMC-BAC-2; first compound 0.2 µM,0.8
same,relative viability,EMC-BAC-2; first compound 0.6325 µM,1.01
same,relative viability,EMC-BAC-2; first compound 2 µM,0.704
same,relative viability,NCI-H1734; first compound 0.02 µM,0.852
same,relative viability,NCI-H1734; first compound 0.6325 µM,0.805
same,relative viability,NCI-H1734; first compound 2 µM,0.605
same,relative viability,NCI-H650; first compound 0.02 µM,0.996
same,relative viability,NCI-H650; first compound 0.2 µM,0.922
same,relative viability,NCI-H650; first compound 0.6325 µM,1.03
same,relative viability,NCI-H650; first compound 2 µM,1.03
same,relative viability,NCI-H3122; first compound 0.02 µM,0.927
same,relative viability,NCI-H3122; first compound 0.2 µM,0.891
same,relative viability,NCI-H3122; first compound 0.6325 µM,0.9
same,relative viability,NCI-H3122; first compound 2 µM,0.66
same,relative viability,NCI-H1563; first compound 0.02 µM,0.924
same,relative viability,NCI-H1563; first compound 0.2 µM,0.782
same,relative viability,NCI-H1563; first compound 0.6325 µM,0.76
same,relative viability,NCI-H1563; first compound 2 µM,0.649
same,relative viability,NCI-H2023; first compound 0.02 µM,0.953
same,relative viability,NCI-H2023; first compound 0.2 µM,0.873
same,relative viability,NCI-H2023; first compound 0.6325 µM,0.656
same,relative viability,NCI-H2023; first compound 2 µM,0.531
same,relative viability,NCI-H727; first compound 0.02 µM,0.814
same,relative viability,NCI-H727; first compound 0.2 µM,1.04
same,relative viability,NCI-H727; first compound 0.6325 µM,0.923
same,relative viability,NCI-H727; first compound 2 µM,0.553
same,relative viability,NCI-H1915; first compound 0.02 µM,1.05
same,relative viability,NCI-H1915; first compound 0.2 µM,1.05
same,relative viability,NCI-H1915; first compound 0.6325 µM,1.12
same,relative viability,NCI-H1915; first compound 2 µM,0.96
same,relative viability,HOP-62; first compound 0.02 µM,1.17
same,relative viability,HOP-62; first compound 0.2 µM,1.02
same,relative viability,HOP-62; first compound 0.6325 µM,1.13
same,relative viability,HOP-62; first compound 2 µM,1.16
same,relative viability,LC-2-ad; first compound 0.02 µM,0.85
same,relative viability,LC-2-ad; first compound 0.2 µM,0.812
same,relative viability,LC-2-ad; first compound 0.6325 µM,0.934
same,relative viability,LC-2-ad; first compound 2 µM,0.658
same,relative viability,NCI-H2170; first compound 0.02 µM,0.989
same,relative viability,NCI-H2170; first compound 0.2 µM,0.705
same,relative viability,NCI-H2170; first compound 0.6325 µM,1.03
same,relative viability,NCI-H2170; first compound 2 µM,0.872
